According to ChEMBL document CHEMBL3991601, “The target landscape of clinical kinase drugs” (Science, 2017):
Active and inactive are the calls of the source.

Assays:
[1] = target: T1, Bifunctional phosphoribosylaminoimidazole carboxylase/phosphoribosylaminoimidazole succinocarboxamide synthetase (Homo sapiens, UniProt P22234)
T1 sequence (P22234 whole entry): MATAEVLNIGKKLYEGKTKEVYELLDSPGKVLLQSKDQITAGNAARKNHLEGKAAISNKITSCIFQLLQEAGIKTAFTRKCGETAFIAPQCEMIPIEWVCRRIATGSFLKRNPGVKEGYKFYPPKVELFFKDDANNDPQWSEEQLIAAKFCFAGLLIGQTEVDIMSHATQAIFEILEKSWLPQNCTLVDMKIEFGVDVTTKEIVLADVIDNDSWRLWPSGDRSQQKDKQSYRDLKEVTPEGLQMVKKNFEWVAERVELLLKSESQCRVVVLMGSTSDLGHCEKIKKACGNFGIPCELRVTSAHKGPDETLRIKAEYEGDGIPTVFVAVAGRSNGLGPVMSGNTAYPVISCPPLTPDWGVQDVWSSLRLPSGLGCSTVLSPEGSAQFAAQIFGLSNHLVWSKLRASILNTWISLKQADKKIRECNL

[2] = target: Ribosomal protein S6 kinase alpha-3 (Homo sapiens, UniProt P51812)
[3] = target: Bone morphogenetic protein receptor type-1B (Homo sapiens, UniProt O00238)
[4] = target: ATP-dependent RNA helicase DDX3X (Homo sapiens, UniProt O00571)
[5] = target: Protein-tyrosine kinase 6 (Homo sapiens, UniProt Q13882)
Activin receptor type-2B = Activin receptor type-2B (Homo sapiens, UniProt Q13705)
[6] = target: cAMP-dependent protein kinase type II-alpha regulatory subunit (Homo sapiens, UniProt P13861)
[7] = target: T2, Tyrosine--tRNA ligase, cytoplasmic (Homo sapiens, UniProt P54577)
T2 sequence (P54577 whole entry): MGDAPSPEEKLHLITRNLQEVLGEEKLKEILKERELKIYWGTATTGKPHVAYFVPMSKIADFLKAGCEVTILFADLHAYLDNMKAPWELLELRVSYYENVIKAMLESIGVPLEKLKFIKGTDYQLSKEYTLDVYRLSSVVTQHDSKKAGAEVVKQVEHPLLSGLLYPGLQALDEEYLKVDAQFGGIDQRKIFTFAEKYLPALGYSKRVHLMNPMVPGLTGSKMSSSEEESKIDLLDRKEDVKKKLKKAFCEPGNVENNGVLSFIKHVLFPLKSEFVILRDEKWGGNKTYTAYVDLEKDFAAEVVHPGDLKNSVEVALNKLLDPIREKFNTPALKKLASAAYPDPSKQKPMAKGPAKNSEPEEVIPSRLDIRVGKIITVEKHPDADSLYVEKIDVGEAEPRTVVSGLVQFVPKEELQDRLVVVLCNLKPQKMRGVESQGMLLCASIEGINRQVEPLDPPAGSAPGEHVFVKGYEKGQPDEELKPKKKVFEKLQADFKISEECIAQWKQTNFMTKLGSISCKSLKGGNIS

Scaffold protein ILK = target: T3, Scaffold protein ILK (Homo sapiens, UniProt Q13418)
T3 sequence (Q13418 whole entry): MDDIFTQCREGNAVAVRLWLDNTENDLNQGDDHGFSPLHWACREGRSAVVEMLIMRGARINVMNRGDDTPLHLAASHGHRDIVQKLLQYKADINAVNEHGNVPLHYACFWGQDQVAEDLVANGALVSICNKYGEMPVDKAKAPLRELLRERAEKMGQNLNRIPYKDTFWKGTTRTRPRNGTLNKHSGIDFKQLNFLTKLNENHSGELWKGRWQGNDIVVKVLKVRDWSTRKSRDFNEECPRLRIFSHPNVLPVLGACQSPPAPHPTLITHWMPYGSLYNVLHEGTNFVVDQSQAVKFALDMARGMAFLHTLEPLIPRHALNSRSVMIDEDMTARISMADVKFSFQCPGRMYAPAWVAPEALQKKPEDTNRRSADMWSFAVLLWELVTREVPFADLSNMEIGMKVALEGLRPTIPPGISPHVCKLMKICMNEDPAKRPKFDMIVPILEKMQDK

[8] = target: T4, Serine/threonine-protein kinase NLK (Homo sapiens, UniProt Q9UBE8)
T4 sequence (Q9UBE8 whole entry): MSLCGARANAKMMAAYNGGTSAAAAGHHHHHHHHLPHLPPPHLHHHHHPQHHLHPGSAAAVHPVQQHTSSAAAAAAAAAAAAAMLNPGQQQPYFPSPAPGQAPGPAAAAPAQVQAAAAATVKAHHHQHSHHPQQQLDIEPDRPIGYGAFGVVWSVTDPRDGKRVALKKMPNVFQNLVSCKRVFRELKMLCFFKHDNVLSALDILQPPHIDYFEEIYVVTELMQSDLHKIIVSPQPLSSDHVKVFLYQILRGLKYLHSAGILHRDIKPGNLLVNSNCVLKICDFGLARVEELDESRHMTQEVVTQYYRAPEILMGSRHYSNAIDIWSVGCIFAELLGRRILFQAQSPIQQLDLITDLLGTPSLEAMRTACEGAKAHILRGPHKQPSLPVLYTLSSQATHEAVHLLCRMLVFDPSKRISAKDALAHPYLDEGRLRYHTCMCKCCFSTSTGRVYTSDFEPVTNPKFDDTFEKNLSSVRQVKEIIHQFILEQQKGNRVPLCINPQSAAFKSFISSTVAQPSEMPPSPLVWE

[9] = target: Platelet-derived growth factor receptor beta (Homo sapiens, UniProt P09619)
Also: in the data inactive means no Kd found up to 30 µM.

Chain of Activin receptor type-2B (Q13705 whole entry): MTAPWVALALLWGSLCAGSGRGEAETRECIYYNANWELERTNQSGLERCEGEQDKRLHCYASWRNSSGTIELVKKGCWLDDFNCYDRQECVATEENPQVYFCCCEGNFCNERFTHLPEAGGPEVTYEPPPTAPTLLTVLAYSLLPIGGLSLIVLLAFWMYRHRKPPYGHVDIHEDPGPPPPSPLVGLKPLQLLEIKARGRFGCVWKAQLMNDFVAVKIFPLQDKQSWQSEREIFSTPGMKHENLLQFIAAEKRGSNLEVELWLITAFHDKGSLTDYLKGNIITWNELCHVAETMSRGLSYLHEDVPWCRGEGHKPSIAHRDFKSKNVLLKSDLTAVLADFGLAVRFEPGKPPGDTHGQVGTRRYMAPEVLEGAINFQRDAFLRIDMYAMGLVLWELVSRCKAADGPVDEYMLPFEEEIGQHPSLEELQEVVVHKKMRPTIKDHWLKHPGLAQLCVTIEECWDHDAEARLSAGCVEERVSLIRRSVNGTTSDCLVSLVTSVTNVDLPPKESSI
Chain of Bone morphogenetic protein receptor type-1B (O00238 whole entry): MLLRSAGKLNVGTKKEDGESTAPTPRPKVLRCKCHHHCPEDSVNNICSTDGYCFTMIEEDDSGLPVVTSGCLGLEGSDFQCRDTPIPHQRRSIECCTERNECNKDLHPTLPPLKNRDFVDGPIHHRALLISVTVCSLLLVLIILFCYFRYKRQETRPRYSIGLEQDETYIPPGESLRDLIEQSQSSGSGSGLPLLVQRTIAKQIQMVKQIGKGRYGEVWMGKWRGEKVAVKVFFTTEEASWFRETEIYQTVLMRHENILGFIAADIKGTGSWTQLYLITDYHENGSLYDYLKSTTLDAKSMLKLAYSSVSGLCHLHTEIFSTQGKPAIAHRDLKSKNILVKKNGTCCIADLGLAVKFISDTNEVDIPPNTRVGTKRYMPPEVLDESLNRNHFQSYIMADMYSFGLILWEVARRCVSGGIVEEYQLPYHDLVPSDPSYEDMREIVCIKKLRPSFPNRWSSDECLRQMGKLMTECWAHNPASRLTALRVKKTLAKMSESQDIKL
Chain of Protein-tyrosine kinase 6 (Q13882 whole entry): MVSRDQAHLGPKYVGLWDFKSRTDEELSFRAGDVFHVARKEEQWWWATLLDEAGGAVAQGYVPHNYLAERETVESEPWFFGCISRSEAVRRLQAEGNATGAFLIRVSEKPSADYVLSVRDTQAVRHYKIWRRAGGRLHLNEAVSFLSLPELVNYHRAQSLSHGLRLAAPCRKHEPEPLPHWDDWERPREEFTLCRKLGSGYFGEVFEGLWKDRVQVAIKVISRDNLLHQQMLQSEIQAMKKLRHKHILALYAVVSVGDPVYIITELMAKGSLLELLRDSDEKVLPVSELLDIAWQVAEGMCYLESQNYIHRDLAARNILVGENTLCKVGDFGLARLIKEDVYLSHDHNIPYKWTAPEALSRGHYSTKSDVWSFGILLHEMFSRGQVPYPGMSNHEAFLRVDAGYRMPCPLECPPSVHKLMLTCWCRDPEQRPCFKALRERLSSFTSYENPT
Chain of cAMP-dependent protein kinase type II-alpha regulatory subunit (P13861 whole entry): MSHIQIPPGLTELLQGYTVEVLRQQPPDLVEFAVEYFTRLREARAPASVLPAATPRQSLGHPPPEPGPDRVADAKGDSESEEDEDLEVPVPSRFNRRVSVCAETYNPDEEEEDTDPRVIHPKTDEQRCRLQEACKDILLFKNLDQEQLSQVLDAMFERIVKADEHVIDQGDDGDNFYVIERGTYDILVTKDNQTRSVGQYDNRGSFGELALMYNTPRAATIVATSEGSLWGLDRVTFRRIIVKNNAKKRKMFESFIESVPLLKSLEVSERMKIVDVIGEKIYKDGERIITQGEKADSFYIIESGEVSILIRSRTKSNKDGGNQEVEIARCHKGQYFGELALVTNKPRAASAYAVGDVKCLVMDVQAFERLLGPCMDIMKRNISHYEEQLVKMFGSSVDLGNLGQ
Chain of Ribosomal protein S6 kinase alpha-3 (P51812 whole entry): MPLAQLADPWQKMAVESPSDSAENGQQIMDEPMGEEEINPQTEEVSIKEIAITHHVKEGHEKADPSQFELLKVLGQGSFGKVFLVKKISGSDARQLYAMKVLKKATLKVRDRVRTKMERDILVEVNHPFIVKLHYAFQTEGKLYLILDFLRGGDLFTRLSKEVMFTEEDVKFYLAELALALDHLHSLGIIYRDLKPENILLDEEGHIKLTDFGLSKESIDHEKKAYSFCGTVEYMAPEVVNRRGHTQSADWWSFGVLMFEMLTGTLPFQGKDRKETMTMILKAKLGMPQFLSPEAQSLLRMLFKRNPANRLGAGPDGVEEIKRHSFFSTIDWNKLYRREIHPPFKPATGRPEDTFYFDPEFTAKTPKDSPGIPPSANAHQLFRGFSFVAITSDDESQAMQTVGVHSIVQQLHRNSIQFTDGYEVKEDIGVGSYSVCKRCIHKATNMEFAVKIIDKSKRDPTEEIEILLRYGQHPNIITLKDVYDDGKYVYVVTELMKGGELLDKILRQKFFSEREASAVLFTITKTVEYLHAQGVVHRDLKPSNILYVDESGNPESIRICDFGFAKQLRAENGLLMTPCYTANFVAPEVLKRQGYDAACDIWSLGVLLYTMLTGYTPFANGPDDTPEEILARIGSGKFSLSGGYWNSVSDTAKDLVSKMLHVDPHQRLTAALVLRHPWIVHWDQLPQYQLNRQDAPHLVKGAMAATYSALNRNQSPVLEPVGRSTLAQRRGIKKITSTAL
Chain of ATP-dependent RNA helicase DDX3X (O00571 whole entry): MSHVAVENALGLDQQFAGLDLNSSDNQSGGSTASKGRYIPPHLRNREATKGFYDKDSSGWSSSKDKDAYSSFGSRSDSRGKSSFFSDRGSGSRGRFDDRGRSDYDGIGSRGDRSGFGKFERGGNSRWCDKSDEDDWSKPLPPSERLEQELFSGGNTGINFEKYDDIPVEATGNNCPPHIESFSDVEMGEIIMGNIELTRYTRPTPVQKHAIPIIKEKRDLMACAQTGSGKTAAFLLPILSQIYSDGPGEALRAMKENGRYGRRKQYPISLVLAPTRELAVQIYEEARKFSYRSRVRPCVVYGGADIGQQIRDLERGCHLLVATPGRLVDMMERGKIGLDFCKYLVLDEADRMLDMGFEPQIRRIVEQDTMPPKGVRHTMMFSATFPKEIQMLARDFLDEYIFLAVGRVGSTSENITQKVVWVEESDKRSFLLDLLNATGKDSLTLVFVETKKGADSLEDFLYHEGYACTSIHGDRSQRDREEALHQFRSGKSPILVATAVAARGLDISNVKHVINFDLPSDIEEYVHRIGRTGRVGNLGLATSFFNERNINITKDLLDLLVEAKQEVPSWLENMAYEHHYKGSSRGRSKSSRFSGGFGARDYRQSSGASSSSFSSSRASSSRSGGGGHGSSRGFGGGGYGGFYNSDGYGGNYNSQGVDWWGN
Chain of Platelet-derived growth factor receptor beta (P09619 whole entry): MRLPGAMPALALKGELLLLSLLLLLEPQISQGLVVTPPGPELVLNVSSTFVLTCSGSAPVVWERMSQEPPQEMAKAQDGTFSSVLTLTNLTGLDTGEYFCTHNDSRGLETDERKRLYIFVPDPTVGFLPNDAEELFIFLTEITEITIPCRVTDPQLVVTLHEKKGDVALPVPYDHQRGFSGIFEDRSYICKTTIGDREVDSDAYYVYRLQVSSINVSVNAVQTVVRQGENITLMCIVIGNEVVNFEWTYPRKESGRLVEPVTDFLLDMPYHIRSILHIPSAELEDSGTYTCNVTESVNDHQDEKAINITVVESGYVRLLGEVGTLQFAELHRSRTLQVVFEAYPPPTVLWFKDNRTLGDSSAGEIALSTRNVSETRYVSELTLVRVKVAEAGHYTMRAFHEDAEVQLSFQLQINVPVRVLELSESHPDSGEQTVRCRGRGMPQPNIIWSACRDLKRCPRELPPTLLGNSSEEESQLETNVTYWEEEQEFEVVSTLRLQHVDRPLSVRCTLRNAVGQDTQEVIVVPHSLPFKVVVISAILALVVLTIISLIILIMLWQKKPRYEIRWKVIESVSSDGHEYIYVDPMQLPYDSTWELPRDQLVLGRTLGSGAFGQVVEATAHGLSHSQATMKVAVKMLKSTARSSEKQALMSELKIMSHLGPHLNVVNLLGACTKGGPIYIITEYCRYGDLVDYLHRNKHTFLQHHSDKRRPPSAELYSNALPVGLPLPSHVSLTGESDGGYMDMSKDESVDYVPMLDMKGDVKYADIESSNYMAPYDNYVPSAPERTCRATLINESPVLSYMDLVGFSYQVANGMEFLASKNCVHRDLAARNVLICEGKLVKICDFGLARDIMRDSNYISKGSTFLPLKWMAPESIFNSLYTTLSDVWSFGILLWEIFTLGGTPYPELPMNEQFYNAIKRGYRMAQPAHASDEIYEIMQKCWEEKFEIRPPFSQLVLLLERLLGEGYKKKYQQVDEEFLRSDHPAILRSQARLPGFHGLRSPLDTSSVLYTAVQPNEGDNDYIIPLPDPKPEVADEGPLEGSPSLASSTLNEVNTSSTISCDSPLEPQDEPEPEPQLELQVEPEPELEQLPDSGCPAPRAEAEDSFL

| Compound | Kd [1] | Kd [2] | Kd [3] | Kd [4] | Kd [5] | Kd (Activin receptor type-2B) | Kd [6] | Kd [7] | Kd (Scaffold protein ILK) | Kd [8] | Kd [9] |
| --- | --- | --- | --- | --- | --- | --- | --- | --- | --- | --- | --- |
| COc1cccc(Nc2ncnn3ccc(CN4CC[C@@H](N)[C@H](O)C4)c23)c1 [BMS-690514] | > 30 µM (inactive) | > 30 µM (inactive) | > 30 µM (inactive) | > 30 µM (inactive) | > 30 µM (inactive) | > 30 µM (inactive) | > 30 µM (inactive) | > 30 µM (inactive) | > 30 µM (inactive) | > 30 µM (inactive) | > 30 µM (inactive) |
| COc1cc2nccc(Oc3ccc(NC(=O)C4(C(=O)Nc5ccc(F)cc5)CC4)cc3)c2cc1OC [CABOZANTINIB] | > 30 µM (inactive) | > 30 µM (inactive) | > 30 µM (inactive) | > 30 µM (inactive) | 1.76 µM (active) | > 30 µM (inactive) | > 30 µM (inactive) | > 30 µM (inactive) | > 30 µM (inactive) | > 30 µM (inactive) | > 30 µM (inactive) |
| c1cc(OCCN2CCCCC2)cc(-c2n[nH]c3ccc(-c4nc[nH]n4)cc23)c1 [CC-401] | > 30 µM (inactive) | > 30 µM (inactive) | > 30 µM (inactive) | > 30 µM (inactive) | > 30 µM (inactive) | > 30 µM (inactive) | > 30 µM (inactive) | > 30 µM (inactive) | > 30 µM (inactive) | > 30 µM (inactive) | > 30 µM (inactive) |
| COc1cc2ncnc(Nc3ccc(F)c(Cl)c3)c2cc1NC(=O)/C=C/CN1CCCCC1 [DACOMITINIB ANHYDROUS] | > 30 µM (inactive) | > 30 µM (inactive) | > 30 µM (inactive) | > 30 µM (inactive) | > 30 µM (inactive) | > 30 µM (inactive) | > 30 µM (inactive) | > 30 µM (inactive) | > 30 µM (inactive) | > 30 µM (inactive) | > 30 µM (inactive) |
| CNC(=O)c1ccc(Nc2ncc(C(F)(F)F)c(NCc3nccnc3N(C)S(C)(=O)=O)n2)cc1 [DEFACTINIB] | > 30 µM (inactive) | > 30 µM (inactive) | > 30 µM (inactive) | > 30 µM (inactive) | > 30 µM (inactive) | > 30 µM (inactive) | > 30 µM (inactive) | > 30 µM (inactive) | > 30 µM (inactive) | > 30 µM (inactive) | > 30 µM (inactive) |
| COc1cc(Nc2ncc(F)c(Nc3ccc4c(n3)N(COP(=O)(O)O)C(=O)C(C)(C)O4)n2)cc(OC)c1OC [FOSTAMATINIB] | > 30 µM (inactive) | > 30 µM (inactive) | > 30 µM (inactive) | > 30 µM (inactive) | > 30 µM (inactive) | > 30 µM (inactive) | > 30 µM (inactive) | > 30 µM (inactive) | > 30 µM (inactive) | > 30 µM (inactive) | > 30 µM (inactive) |
| Cc1c(Cn2c(C)nc3c(C(=O)O)cc(N4CCOCC4)cc32)cccc1C(F)(F)F [GSK-2636771] | > 30 µM (inactive) | > 30 µM (inactive) | > 30 µM (inactive) | > 30 µM (inactive) | > 30 µM (inactive) | > 30 µM (inactive) | > 30 µM (inactive) | > 30 µM (inactive) | > 30 µM (inactive) | > 30 µM (inactive) | > 30 µM (inactive) |
| O=S(=O)(c1cccc2c(O)nccc12)N1CCCNCC1 [HYDROXYFASUDIL] | > 30 µM (inactive) | > 30 µM (inactive) | > 30 µM (inactive) | > 30 µM (inactive) | > 30 µM (inactive) | > 30 µM (inactive) | > 30 µM (inactive) | > 30 µM (inactive) | > 30 µM (inactive) | > 30 µM (inactive) | > 30 µM (inactive) |
| C#Cc1cccc(Nc2ncnc3cc4c(cc23)OCCOCCOCCO4)c1 [ICOTINIB] | > 30 µM (inactive) | > 30 µM (inactive) | > 30 µM (inactive) | > 30 µM (inactive) | > 30 µM (inactive) | > 30 µM (inactive) | > 30 µM (inactive) | > 30 µM (inactive) | > 30 µM (inactive) | > 30 µM (inactive) | > 30 µM (inactive) |
| COc1cc2ncnc3c2cc1OCCCCCN(C)Cc1ccc(Br)cc1N3 [JNJ-26483327] | > 30 µM (inactive) | > 30 µM (inactive) | > 30 µM (inactive) | > 30 µM (inactive) | > 30 µM (inactive) | > 30 µM (inactive) | > 30 µM (inactive) | > 30 µM (inactive) | > 30 µM (inactive) | > 30 µM (inactive) | > 30 µM (inactive) |
| Cc1ccc(C(=O)Nc2ccc(Oc3cc4cnn(C)c4cc3-c3cn[nH]c3)c(F)c2)c(=O)n1-c1ccc(F)cc1 [MERESTINIB] | > 30 µM (inactive) | > 30 µM (inactive) | > 30 µM (inactive) | > 30 µM (inactive) | > 30 µM (inactive) | > 30 µM (inactive) | > 30 µM (inactive) | > 30 µM (inactive) | > 30 µM (inactive) | > 30 µM (inactive) | > 30 µM (inactive) |
| O=C(NOC[C@H](O)CO)c1ccc(F)c(F)c1Nc1ccc(I)cc1F [MIRDAMETINIB] | > 30 µM (inactive) | > 30 µM (inactive) | > 30 µM (inactive) | > 30 µM (inactive) | > 30 µM (inactive) | > 30 µM (inactive) | > 30 µM (inactive) | > 30 µM (inactive) | > 30 µM (inactive) | > 30 µM (inactive) | > 30 µM (inactive) |
| N#CCNC(=O)c1ccc(-c2ccnc(Nc3ccc(N4CCOCC4)cc3)n2)cc1 [MOMELOTINIB] | > 30 µM (inactive) | > 30 µM (inactive) | > 30 µM (inactive) | > 30 µM (inactive) | > 30 µM (inactive) | > 30 µM (inactive) | > 30 µM (inactive) | > 30 µM (inactive) | > 30 µM (inactive) | > 30 µM (inactive) | > 30 µM (inactive) |
| COc1cccc2cc(-c3nc([C@H]4CC[C@H](C(=O)O)CC4)n4ncnc(N)c34)[nH]c12 [OSI-027] | > 30 µM (inactive) | > 30 µM (inactive) | > 30 µM (inactive) | > 30 µM (inactive) | > 30 µM (inactive) | > 30 µM (inactive) | > 30 µM (inactive) | > 30 µM (inactive) | > 30 µM (inactive) | 3.33 µM | > 30 µM (inactive) |
| O=C(Nc1ccc(OC(F)(F)F)cc1)c1sccc1NCc1ccnc2ccccc12 [OSI-930] | > 30 µM (inactive) | > 30 µM (inactive) | > 30 µM (inactive) | > 30 µM (inactive) | > 30 µM (inactive) | > 30 µM (inactive) | > 30 µM (inactive) | > 30 µM (inactive) | > 30 µM (inactive) | > 30 µM (inactive) | > 30 µM (inactive) |
